Source: US6713057B1, “Compositions and methods for modulating serum cholesterol” (The Johns Hopkins University, priority 1999, dated 2004)

What was measured:
SREBP-1 [1] = assay: SREBP-1 proteolysis (maturation) assay, Western immunoblot of nuclear fractions, HH-25 hepatocytes; format: cell-based, human; conditions: for induction of SREBP-1 maturation (increase in mature SREBP-1), in words: HH-25 hepatocytes, sterol independent
Description: FIGS. 2A-2C illustrate effects of TNF-α sphingomyelinase and C2-ceramide on the kinetics of SREBP-1 maturation—FIGS. 2A-2C is explained in more detail as follows: Cells were maintained in media supplemented with 1 μg/ml 25-hydroxy cholesterol and 15 μg/ml cholesterol for 24 hours before the experiment. The cells were treated for the indicated time as described in materials and methods. The cells were then harvested in PBS, pelleted and frozen. Lysis and nuclear fractionation were performed as described. Nuclear fractions (50 μg of protein) were electrophoresed on a 7.5% polyacrylamide gel and transferred to a PVDF membrane. Western blotting was performed as described. Band intensity was quantified via densitometry. Error bars represent ±one standard deviation from the mean. 2A) The kinetics of SREBP maturation as measured by the increase in mature SREBP-1 are plotted. Fold increase was calculated by comparing each time point to the corresponding control value (TNF-α is represented by stippled bars, bacterial sphingomyelinase is represented by light gray bars and C2-ceramide by the dark bars.) 2B) Cells were treated with TNF-α (10 ng/ml) and prepared as described above. The bands corresponding to the precursor and mature forms of SREBP-1 were quantified and their ratio plotted. 2C) Representative Western blots from which numerical data was derived. Incubation time is indicated above and applies to all conditions. The membranes were exposed to film for 15 seconds. P and M denote the precursor and mature forms of SREBP-1 respectively.
FIGS. 3A-3C show effects of TNF-α, sphingomyelinase and C2-ceramide concentration on SREBP-1 maturation—The FIGS. 3A-3C are explained in more detail as follows. […] Nuclear pellets were prepared and electrophoresed (50 μg of protein). The bands corresponding to the precursor and mature forms of SREBP-1 were quantified. The precursor to mature ratios were normalized to a single control to facilitate comparison. The control ratio was arbitrarily assigned a value of 1. A Unit of sphingomyelinase activity hydrolyzes 1.0 μmol of sphingomyelin per minute at 37° C. FIG. 3A (ng/ml TNF-α); FIG. 3B (mUnits of sphingomyelinase); FIG. 3C (micromolar C2-ceramide).
HH-25 cells were grown in alpha-minimal essential media supplemented with 100 units/ml penicillin, 100 µg/ml streptomycin, […], 0.1 μM selenium, 5.5 μg/ml transferrin, 0.5 μg/ml linoleic acid and 10% fetal bovine serum (media A). The cells were incubated in serum free F10 media for 30 to 60 minutes prior to initiating treatment with TNF-α, C2-ceramide or sphingomyelinase.
Following treatment, the cells were washed with 5 ml of PBS and pelleted at 1500×g for 10 minutes at 4° C. The pellet was stored at −70° C. and lysed in 0.5 ml buffer A (10 mM HEPES pH 7.4, 5 mM EDTA, 0.25 mM EGTA, 50 mM NaF, 7 mM β-mercaptoethanol, 0.35M sucrose, 0.1% NP-40 and protease inhibitors 1 mM PMSF, 2 μg/ml aprotinin, 10 μg/ml leupeptin and 5 μg/ml pepstatin). The lysate was centrifuged at 12,000×g for 15 minutes at 4° C. to prepare a nuclear fraction. The protein concentration of these samples was determined by the method of Lowry et al. al. (19).
50 μg of nuclear protein was separated by gel electrophoresis on a 7.5% polyacrylamide gel. Gels were calibrated by high range molecular weight markers (Bio-Rad product #161-0303, New York, N.Y.) which were transferred to a polyvinyl difluoride (PVDF) membrane and visualized with coomassie staining. Rabbit polyclonal antibodies against SREBP-1 were used at 0.5 μg/ml according to the instructions of the manufacturer. The antibody was visualized with horseradish peroxidase conjugated anti-rabbit IgG made in donkey (Amersham) using the Enhanced Chemiluminescence (ECL) Western Blotting Detection System Kit (Amersham). PVDF membranes were exposed to Hyperfilm ECL (Amersham) for the indicated time. Immunoblots were quantified via densitometry performed on a PDI densitometer scanner (model 20J7) coupled to a SPARC IRC workstation.

SREBP-1 [2] = assay: Indirect immunofluorescence of SREBP-1 subcellular localization; format: cell-based, human; conditions: 30 minutes after initiating treatment; TNF-α 10 ng/ml, sphingomyelinase 100 mUnits, C2-ceramide 10 μM
Description: FIGS. 5A-5D show indirect immunofluorescence of SREBP-1. FIGS. 5A-5D are discussed in more detail as follows. SREBP-1 was visualized with rabbit polyclonal antibodies directed towards the N-terminal DNA binding domain which is common to both the precursor and mature forms. Cells were maintained in media supplemented with 1 μg/ml 25-hydroxycholesterol and 15 μg/ml cholesterol for 24 hours before the experiment. Immunofluorescence was performed as described. All magnifications are 40× and all photographs were taken of samples that were fixed 30 minutes after initiating treatment. FIG. 5A) Control cells, FIG. 5B) Cells treated with TNF-α (10 ng/ml), FIG. 5C) Cells treated with sphingomyelinase (100 mUnits), FIG. 5D) Cells treated with C2-ceramide (10 μM).
Cultured HH-25 cells were grown on coverslips and treated as described. After treatment, the cells were washed 3×5 minutes with PBS containing 1 mM MgCl2 and 0.1 mM CaCl2 (solution A). The cells were fixed with 3% paraformaldehyde in solution A for 10 minutes and permeabilized with 0.5% Triton X-100 in solution A for 6 minutes at room temperature. The coverslips were then washed 3×5 minutes with solution A.
Primary antibody (anti-SREBP1) was used at a dilution of […] in PBS and applied for 1 hour with gentle shaking. The cells were washed as above and a FITC conjugated anti-rabbit IgG secondary antibody, was applied for ½ hour according to the instructions of the manufacturer. The coverslips were washed, mounted on microscope slides and were viewed and photographed at the indicated magnification on a Zeiss Axiovert 25 fluorescence microscope.

SREBP-1 [3] = assay: Electrophoretic mobility shift assay, SREBP-1 binding to SRE probe; format: cell-based, human; conditions: TNF-α 10 ng/ml, sphingomyelinase 100 mUnits, C2-ceramide 10 μM
Description: FIGS. 6A-6D show electrophoretic mobility shift assays. FIGS. 6A-D are explained in more detail as follows. Cells were maintained in sterol supplemented media. Nuclear pellets were prepared and assayed as described in materials and methods. Probe that has been bound by mature SREBP-1 is indicated as “Bound”. Unbound probe is indicated as “Free”. The kinetics (in minutes) of SREBP-1 binding to the probe in response to treatment with (FIG. 6A). TNF-α (10 ng/ml), (FIG. 6B) sphingomyelinase (100 mUnits) and (FIG. 6C) C2-ceramide ([…]). (FIG. 6D). The cells were treated with either TNF-α (10 ng/ml), sphingomyelinase (100 mUnits) or C2-ceramide (10 μM) for 15 minutes. Supershift assays were then performed with antibodies raised against the DNA binding domain of SREBP-1. The presence or absence of antibody is indicated by (+) and (−) respectively. Pre-immune IgG was used as a control.
Gel mobility shift assays were performed as follows. Each 20 μl reaction mixture contained 8-10 μg of nuclear protein plus a α-[^32P]-labeled 25-base pair oligonucleotide probe containing the SREBP-binding site (14) in binding buffer (10 mM Hepes, pH 7.5, 0.5 mM spermidine, 0.15 mM EDTA, 10 mM dithiothreitol, 0.35 mM sucrose). The reaction mixture was incubated at room temperature for 15 min and loaded directly onto a 6.5% polyacrylamide (49:0.6 acrylamide/bisacrylamide) gel in a buffer of 25 mM Tris borate (pH 8.0), 0.25 mM EDTA. In some experiments, antisera specific for SREBP or preimmune sera were added to reaction mixtures to determine the composition of protein-probe complexes. For these “supershift” assays, extracts were incubated with 1 μl of preimmune sera or an equal volume of anti-SREBP antisera at 4° C. for 30 min prior to addition of α-[^32P]-labeled probe. In all experiments, proteins were separated by electrophoresis at 200 V for 2 h at room temperature. Gels were dried and exposed to Kodak XAR film with intensifying screens. Assays were repeated with nuclear extracts obtained from three unique experiments and evaluated by phosphoimage analysis to ensure reproducibility of results.

Description for HH-25 cells: Cells were treated with either TNF-α, sphingomyelinase or C2-ceramide for 1 hour at concentrations identical to those used in the SREBP-1 maturation studies. The cells were then washed twice with minimal essential medium and refed with media A for 6 hours. […] Genomic DNA was electrophoresed and stained with ethidium bromide.

Row | Compound | induction of SREBP-1 maturation (increase in mature SREBP-1), in words (SREBP-1 [1]) | subcellular localization of SREBP-1 (staining pattern) (SREBP-1 [2]) | amount of probe bound (electrophoretically retarded) by mature SREBP-1 (SREBP-1 [3]) | induction of apoptosis (160 bp DNA ladder) (HH-25 cells) | decrease in the precursor to mature ratio (SREBP-1 [1]; 250 milliunits of sphingomyelinase activity) [%] | increase in mass of the mature form of SREBP-1 (SREBP-1 [1]; after 15 minutes of treatment, sterol supplemented media) [fold] | persistence of the increase in mature SREBP-1 (SREBP-1 [1]; after 60 minutes)
1 | CCCCCCCCCCCCCCC[C@@H](O)[C@H](CO)NC(C)=O [C2-dihydroceramide, reference compound] | could not be induced |  |  |  |  |  | 
2 | PDGF | could not be recapitulated |  |  |  |  |  | 
3 | Sphingomyelinase |  | intense nuclear staining and little extra-nuclear staining | increases | did not induce apoptosis | 80 | 2.5 | persisted after 60 minutes
